Test results as given in patent US20250262201A1, “COMPOUNDS AND METHODS USEFUL FOR STABILIZING PHENYLALANINE HYDROXYLASE MUTATIONS” (Agios Pharmaceuticals, Inc., priority 2022, published 2025).

Biological target: T1, human PAH with the R408W mutation (Homo sapiens, UniProt P00439, R408W)
T1 construct: expressed in transfected cells
T1 sequence (P00439 1-452 R408W): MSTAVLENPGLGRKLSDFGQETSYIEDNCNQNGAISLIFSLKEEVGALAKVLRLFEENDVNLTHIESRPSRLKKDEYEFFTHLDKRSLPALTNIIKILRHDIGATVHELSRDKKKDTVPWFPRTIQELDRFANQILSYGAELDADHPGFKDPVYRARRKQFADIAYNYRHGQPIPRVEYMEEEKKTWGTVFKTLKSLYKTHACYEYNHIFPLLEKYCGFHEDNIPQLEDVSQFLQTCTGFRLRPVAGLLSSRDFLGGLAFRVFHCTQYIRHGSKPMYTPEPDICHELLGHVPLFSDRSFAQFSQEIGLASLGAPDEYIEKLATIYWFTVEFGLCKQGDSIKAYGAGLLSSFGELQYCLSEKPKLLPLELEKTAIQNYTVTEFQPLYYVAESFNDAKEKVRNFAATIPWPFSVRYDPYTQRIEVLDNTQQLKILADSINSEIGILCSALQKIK
Experiment: Cell Based Phenylalanine Flux Assay
Settings: A375 cells expressing human R408W PAH; 24 hrs compound incubation; 13C-Tyrosine by LC-MS; average where tested multiple times; read-out: AC50

Compound | AC50 [nM]
CC(C)(O)c1ncc(C(=O)N2CCc3[nH]cnc3[C@H]2c2cc3ccccc3cn2)s1 [Example 328, (R)-(2-(2-hydroxypropan-2-yl)thiazol-5-yl)(4-(isoquinolin-3-yl)-6,7-dihydro-1H-imidazo[4,5-c]pyridin-5(4H)-yl)methanone] | 500 to 1000
CC(C)(O)c1ncc(C(=O)N2CCc3[nH]cnc3[C@@H]2c2cc3ccccc3cn2)s1 [Example 329, (S)-(2-(2-hydroxypropan-2-yl)thiazol-5-yl)(4-(isoquinolin-3-yl)-6,7-dihydro-1H-imidazo[4,5-c]pyridin-5(4H)-yl)methanone] | > 5000
CN(C)Cc1ccc2c(C(=O)N3CCc4[nH]cnc4[C@H]3c3cc4ccccc4cn3)cnn2c1 [Example 330, (R)-(6-((dimethylamino)methyl)pyrazolo[1,5-a]pyridin-3-yl)(4-(isoquinolin-3-yl)-6,7-dihydro-1H-imidazo[4,5-c]pyridin-5(4H)-yl)methanone] | < 500
CN(C)Cc1ccc2c(C(=O)N3CCc4[nH]cnc4[C@@H]3c3cc4ccccc4cn3)cnn2c1 [Example 331, (S)-(6-((dimethylamino)methyl)pyrazolo[1,5-a]pyridin-3-yl)(4-(isoquinolin-3-yl)-6,7-dihydro-1H-imidazo[4,5-c]pyridin-5(4H)-yl)methanone] | > 5000
CC(C)(F)c1ncc(C(=O)N2CCc3[nH]cnc3[C@H]2c2cc3ccccc3cn2)s1 [Example 332, (R)-(2-(2-fluoropropan-2-yl)thiazol-5-yl)(4-(isoquinolin-3-yl)-6,7-dihydro-1H-imidazo[4,5-c]pyridin-5(4H)-yl)methanone] | < 500
CC(C)(F)c1ncc(C(=O)N2CCc3[nH]cnc3[C@@H]2c2cc3ccccc3cn2)s1 [Example 333, (S)-(2-(2-fluoropropan-2-yl)thiazol-5-yl)(4-(isoquinolin-3-yl)-6,7-dihydro-1H-imidazo[4,5-c]pyridin-5(4H)-yl)methanone] | 1000 to 5000
O=C(c1nnc(-c2c(F)cccc2F)o1)N1CCc2[nH]cnc2[C@H]1c1cc2ccccc2cn1 [Example 334, (R)-(5-(2,6-difluorophenyl)-1,3,4-oxadiazol-2-yl)(4-(isoquinolin-3-yl)-6,7-dihydro-1H-imidazo[4,5-c]pyridin-5(4H)-yl)methanone] | < 500
O=C(c1nnc(-c2c(F)cccc2F)o1)N1CCc2[nH]cnc2[C@@H]1c1cc2ccccc2cn1 [Example 335, (S)-(5-(2,6-difluorophenyl)-1,3,4-oxadiazol-2-yl)(4-(isoquinolin-3-yl)-6,7-dihydro-1H-imidazo[4,5-c]pyridin-5(4H)-yl)methanone] | 1000 to 5000
Fc1ccc(-c2nnc(N3CCc4[nH]cnc4[C@@H]3c3cc4ccccc4cn3)o2)cc1 [Example 336, (S)-2-(4-fluorophenyl)-5-(4-(isoquinolin-3-yl)-6,7-dihydro-1H-imidazo[4,5-c]pyridin-5(4H)-yl)-1,3,4-oxadiazole] | > 5000
Fc1ccc(-c2nnc(N3CCc4[nH]cnc4[C@H]3c3cc4ccccc4cn3)o2)cc1 [Example 337, (R)-2-(4-fluorophenyl)-5-(4-(isoquinolin-3-yl)-6,7-dihydro-1H-imidazo[4,5-c]pyridin-5(4H)-yl)-1,3,4-oxadiazole] | < 500
CC(C)(F)c1ncc(C(=O)N2CCc3[nH]cnc3[C@@H]2c2cc3ccccc3cn2)o1 [Example 338, (S)-(2-(2-fluoropropan-2-yl)oxazol-5-yl)(4-(isoquinolin-3-yl)-6,7-dihydro-1H-imidazo[4,5-c]pyridin-5(4H)-yl)methanone] | > 5000
CC(C)(F)c1ncc(C(=O)N2CCc3[nH]cnc3[C@H]2c2cc3ccccc3cn2)o1 [Example 339, (R)-(2-(2-fluoropropan-2-yl)oxazol-5-yl)(4-(isoquinolin-3-yl)-6,7-dihydro-1H-imidazo[4,5-c]pyridin-5(4H)-yl)methanone] | < 500
O=C(c1nnc(-c2ccc(F)cn2)o1)N1CCc2[nH]cnc2[C@H]1c1cc2ccccc2cn1 [Example 340, (R)-(5-(5-fluoropyridin-2-yl)-1,3,4-oxadiazol-2-yl)(4-(isoquinolin-3-yl)-6,7-dihydro-1H-imidazo[4,5-c]pyridin-5(4H)-yl)methanone] | < 500
O=C(c1nnc(-c2ccc(F)cn2)o1)N1CCc2[nH]cnc2[C@@H]1c1cc2ccccc2cn1 [Example 341, (S)-(5-(5-fluoropyridin-2-yl)-1,3,4-oxadiazol-2-yl)(4-(isoquinolin-3-yl)-6,7-dihydro-1H-imidazo[4,5-c]pyridin-5(4H)-yl)methanone] | > 5000
O=C(c1nnc(-c2ccc(F)cc2)o1)N1CCc2[nH]cnc2[C@H]1c1cc2ccccc2cn1 [Example 342, (R)-(5-(4-fluorophenyl)-1,3,4-oxadiazol-2-yl)(4-(isoquinolin-3-yl)-6,7-dihydro-1H-imidazo[4,5-c]pyridin-5(4H)-yl)methanone] | < 500
O=C(c1nnc(-c2ccc(F)cc2)o1)N1CCc2[nH]cnc2[C@@H]1c1cc2ccccc2cn1 [Example 343, (S)-(5-(4-fluorophenyl)-1,3,4-oxadiazol-2-yl)(4-(isoquinolin-3-yl)-6,7-dihydro-1H-imidazo[4,5-c]pyridin-5(4H)-yl)methanone] | > 5000
CC(C)(F)c1ccc2c(C(=O)N3CCc4[nH]cnc4[C@H]3c3cc4ccccc4cn3)cnn2c1 [Example 344, (R)-(6-(2-fluoropropan-2-yl)pyrazolo[1,5-a]pyridin-3-yl)(4-(isoquinolin-3-yl)-6,7-dihydro-1H-imidazo[4,5-c]pyridin-5(4H)-yl)methanone] | 500 to 1000
Cc1nnc(CCC(=O)N2CCc3[nH]cnc3[C@H]2c2cc3ccccc3cn2)o1 [Example 345, (R)-1-(4-(isoquinolin-3-yl)-6,7-dihydro-1H-imidazo[4,5-c]pyridin-5(4H)-yl)-3-(5-methyl-1,3,4-oxadiazol-2-yl)propan-1-one] | 500 to 1000
O=C(CCc1nnc(C(F)F)o1)N1CCc2[nH]cnc2[C@H]1c1cc2ccccc2cn1 [Example 346, (R)-3-(5-(difluoromethyl)-1,3,4-oxadiazol-2-yl)-1-(4-(isoquinolin-3-yl)-6,7-dihydro-1H-imidazo[4,5-c]pyridin-5(4H)-yl)propan-1-one] | 1000 to 5000
CC(C)(O)c1nnc(C(=O)N2CCc3[nH]cnc3[C@H]2c2cc3ccccc3cn2)o1 [Example 347, (R)-(5-(2-hydroxypropan-2-yl)-1,3,4-oxadiazol-2-yl)(4-(isoquinolin-3-yl)-6,7-dihydro-1H-imidazo[4,5-c]pyridin-5(4H)-yl)methanone] | 500 to 1000
O=C(c1ocnc1-c1ccccc1)N1CCc2[nH]cnc2[C@H]1c1cc2ccccc2cn1 [Example 348, (R)-(4-(isoquinolin-3-yl)-6,7-dihydro-1H-imidazo[4,5-c]pyridin-5(4H)-yl)(4-phenyloxazol-5-yl)methanone] | < 500
O=C(Cc1nncs1)N1CCc2[nH]cnc2[C@H]1c1cc2ccccc2cn1 [Example 349, (R)-1-(4-(isoquinolin-3-yl)-6,7-dihydro-1H-imidazo[4,5-c]pyridin-5(4H)-yl)-2-(1,3,4-thiadiazol-2-yl)ethanone] | < 500
O=C(c1nncs1)N1CCc2[nH]cnc2[C@H]1c1cc2ccccc2cn1 [Example 350, (R)-(4-(isoquinolin-3-yl)-6,7-dihydro-1H-imidazo[4,5-c]pyridin-5(4H)-yl)(1,3,4-thiadiazol-2-yl)methanone] | < 500
Cc1nnc(CC(=O)N2CCc3[nH]cnc3[C@H]2c2cc3ccccc3cn2)s1 [Example 351, (R)-1-(4-(isoquinolin-3-yl)-6,7-dihydro-1H-imidazo[4,5-c]pyridin-5(4H)-yl)-2-(5-methyl-1,3,4-thiadiazol-2-yl)ethanone] | 500 to 1000
O=C(c1cnn2cc(Br)ccc12)N1CCc2[nH]cnc2[C@H]1c1cc2ccccc2cn1 [Example 352, (R)-(6-bromopyrazolo[1,5-a]pyridin-3-yl)(4-(isoquinolin-3-yl)-6,7-dihydro-1H-imidazo[4,5-c]pyridin-5(4H)-yl)methanone] | < 500
O=C(c1ncn2ccccc12)N1CCc2[nH]cnc2[C@H]1c1cc2ccccc2cn1 [Example 353, (R)-imidazo[1,5-a]pyridin-1-yl(4-(isoquinolin-3-yl)-6,7-dihydro-1H-imidazo[4,5-c]pyridin-5(4H)-yl)methanone] | < 500
O=C(c1ocnc1-c1ccccn1)N1CCc2[nH]cnc2[C@H]1c1cc2ccccc2cn1 [Example 354, (R)-(4-(isoquinolin-3-yl)-6,7-dihydro-1H-imidazo[4,5-c]pyridin-5(4H)-yl)(4-(pyridin-2-yl)oxazol-5-yl)methanone] | < 500
O=C(c1cnn2c(Br)cccc12)N1CCc2[nH]cnc2[C@H]1c1cc2ccccc2cn1 [Example 355, (R)-(7-bromopyrazolo[1,5-a]pyridin-3-yl)(4-(isoquinolin-3-yl)-6,7-dihydro-1H-imidazo[4,5-c]pyridin-5(4H)-yl)methanone] | < 500
O=C(c1cnn2ccc(Br)cc12)N1CCc2[nH]cnc2[C@H]1c1cc2ccccc2cn1 [Example 356, (R)-(5-bromopyrazolo[1,5-a]pyridin-3-yl)(4-(isoquinolin-3-yl)-6,7-dihydro-1H-imidazo[4,5-c]pyridin-5(4H)-yl)methanone] | < 500
O=C(c1cnn2cccc(F)c12)N1CCc2[nH]cnc2[C@H]1c1cc2ccccc2cn1 [Example 357, (R)-(4-fluoropyrazolo[1,5-a]pyridin-3-yl)(4-(isoquinolin-3-yl)-6,7-dihydro-1H-imidazo[4,5-c]pyridin-5(4H)-yl)methanone] | < 500
